Experimental data published in patent US8975259B2, “Compositions and methods for inhibiting G protein signaling” (University of Rochester, priority 2007, dated 2015).
Read-outs that look alike come from different tables or passages of the source.

Columns and labels:
PI3Kγ = assay: Gβ1γ2-dependent activation of purified p101/p110 PI3Kγ; format: biochemical; conditions: for effect on Gβ1γ2-dependent activation of PI3Kγ: result in words
Experimental: Purified PLCβ2 (0.25 ng) was assayed in the presence (▴) or absence (▪) of 100 nM purified Gβ1γ2. […] Assays contained 10 ng of purified p101/p110 PI3Kγ heterodimer with or without 100 nM purified Gβ1γ2. Left panel: (▴) 100 nM Gβ1γ2 or (▪) no βγ. […] M119 or M201 and 25 nM purified GRK2 were added simultaneously to 250 nM biotinylated Gβ1γ2 (bGβ1γ2) immobilized on streptavidin agarose. GRK2 was detected with antibody to GRK2. Data are representative (mean ±SEM, except D) repeated at least three times each. […] 30 nM bGβ1γ2 was incubated with either 30 nM PLCβ2 or PLCβ3 in the presence or absence of M119 or M201 for 16 h at 4° C. before precipitation with avidin agarose and detection with PLCβ2,or Gβ antibodies. […] Same as 4E with PLCβ3.
Nevertheless, M119 and M201 were tested in in vitro reconstitution assays of Gβγ-dependent activation of PLCβ2, PLCβ3 and PI3Kγ and binding to GRK2. […] These are only two of multiple diverse compounds identified, indicating potential for multiple modes of Gβγ-dependent target modulation by these small molecules.

[1] = test system: GRK2 membrane recruitment in adult mouse cardiomyocytes; assay: β-AR-mediated GRK2 membrane recruitment in isolated adult mouse cardiomyocytes; format: cell-based; conditions: result in words
Experimental: Thus, it was tested whether M119 could block GRK2 recruitment to membrane-bound Gβγ subunits upon agonist stimulation of β-AR in cardiomyocytes, similar to what had been observed in vitro with the peptide inhibitors described above. Indeed M119 reduced β-AR-mediated recruitment of GRK2 to membranes of isolated adult mouse cardiomyocytes, with a mild reduction of membrane associated GRK2 at baseline.

[2] = test system: cAMP generation in adult mouse cardiomyocytes; assay: cAMP generation in isolated adult mouse cardiomyocytes; format: cell-based; conditions: 10 μM M119 5 min pre-treatment, 100 nM isoproterenol 15 min; result in words
Experimental: Isolated cardiomyocytes were treated with vehicle (V) or 100 nM isoproterenol (I) for 15 minutes in the presence or absence of a 5 minute pre-treatment with 10 μM M119 (M). Forskolin treatment, which directly activates adenylyl cyclase, was used as a control.

[3] = test system: isoproterenol-induced heart failure in mice; assay: Isoproterenol mini-osmotic pump acute model of heart failure; format: in vivo, mouse; conditions: result in words
Experimental: Conscious echocardiography was performed on animals prior to sacrifice. % FS is a measure of cardiac contractility derived from end-diastolic and end-systolic diameters. […] Heart weight to body weight ratio (HW:BW) was assessed upon sacrifice of the animal. (n=7-8 per condition)
Immunoblot for GRK2 of equal amounts of total protein isolated from hearts of adult C57/B16 male mice following 1 week of either vehicle or Iso (30 mg/kg/day) delivered by miniosmotic pumps (Veh, . . . or Iso, . . . , respectively) and concurrent daily vehicle or M119 (100 mg/kg) daily injections ( . . . , Veh, or . . . , Cmpd, respectively).
Based on the positive cardiomyocyte data, the cardiac effects of M119 were tested in vivo. The NCI compound database and chemical library was originally assembled to investigate these compounds utilizing both a yeast high-throughput screening assay as well as in vivo compound delivery to mice for 1-2 weeks. […] Wild type mice were implanted with mini-osmotic pumps filled with either vehicle or the non-selective β-AR agonist isoproterenol. These pumps release a constant fluid volume, and 30 mg/kg/day of isoproterenol (Iso) has been used to attain pathologic cardiac hypertrophy and dysfunction in one week Immediately following mini-osmotic pump implantation of vehicle or Iso (30 mg/kg/day), mice from each group were injected intraperitoneal (IP) once daily with equal volumes of either vehicle or a moderate dose of M119 (100 mg/kg) for seven days. […] The Iso pumped animals indeed suffered a decrease of cardiac function coupled with pathologic hypertrophy.

[4] = test system: M3 muscarinic receptor-dependent Ca2+ release in HEK-293 cells; assay: Carbachol-dependent Ca2+ release in HEK-293 cells expressing M3 muscarinic receptor; format: cell-based; conditions: 10 μM; result in words
Gβ1γ2 = Gβ1γ2 (UniProt P54311+P63212); assay: Surface plasmon resonance direct binding to Gβ1γ2; set-up: made in house; host or cells: Sf9 insect cells (baculovirus); conditions: for kon: read-out: association rate constant (kon, ka); for koff: read-out: dissociation rate constant (koff, kd)
Text: To understand the protein binding characteristics of compounds a surface plasmon resonance (SPR) method was developed for monitoring direct small molecule binding to G βγ subunits using a Reichert SPR instrument. In addition to binding affinity, binding kinetics can be obtained from this analysis. […] To obtain the data in herein, 3000 refractive index units (RIU) of Gβ1γ2 was immobilized to maximize detection of small molecule binding (Karlsson et al., 2006; Markgren et al., 2001; Rich et al., 2001) and compounds were injected at 75 μl/min and changes in bulk refractive index were accounted for in a reference flow cell. […] This method is used to analyze compound binding kinetics and calculate equilibrium binding constants to test the mechanisms of action and selectivity of various “hot spot” binding compounds.
Direct binding of “hot spot” binding small molecules was assessed using the Reichert SR7000 Surface Plasmon Resonance dual chamber instrument equipped with an autosampler (Reichert, Depew, N.Y.). To activate the sensor chip surface, a mixture of 0.1 M 1-ethyl-3-(3-dimethylaminopropyl) carbodiimide hydrochloride and 0.05 M N-hydroxysuccinimide was injected (flow rate 5 μl/min) over the sensor surface. Streptavidin (100 μg/ml; prepared in 20 mM sodium acetate buffer, pH 5.5) was coupled to the sensor chip surface followed by quenching the remaining activated carboxyl groups with 1 M ethanolamine, pH 8.5. bGβ1γ2 was conjugated to the streptavidin-coated chip in running buffer (50 mM HEPES, pH 7.6, 1 mM EDTA, 100 mM NaCl, 0.1% C12E10, and 1 mM dithiothreitol) to achieve 2000 micro-refractive index units. A second reference cell was treated similarly, but bGβ1γ2 was excluded. Direct binding of small molecules was tested out at room temperature with a flow rate of 75 μl/min. Compounds were prepared in running buffer and injected for 10 min followed by a dissociation phase of 10 min. The obtained sensorgrams were corrected for nonspecific background by running the same experiment in series over an identical sensor surface with immobilized streptavidin, blocked with biotin, without bGβγ. […] Best fit kinetic parameters were determined using kinetic titration model and ClampXP ver. 3.5, which accounts for incomplete dissociation between injections (Karisson et al., 2006).

Gβ1γ2, sequence (P54311 whole entry): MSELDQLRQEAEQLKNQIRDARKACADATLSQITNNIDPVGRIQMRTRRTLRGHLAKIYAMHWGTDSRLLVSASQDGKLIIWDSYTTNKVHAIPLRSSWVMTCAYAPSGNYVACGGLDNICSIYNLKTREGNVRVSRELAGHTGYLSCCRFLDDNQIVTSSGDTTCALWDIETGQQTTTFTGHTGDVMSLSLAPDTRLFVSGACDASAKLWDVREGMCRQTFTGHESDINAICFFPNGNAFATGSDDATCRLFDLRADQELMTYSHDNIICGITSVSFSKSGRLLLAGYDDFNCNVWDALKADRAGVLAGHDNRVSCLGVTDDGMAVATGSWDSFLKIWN
Gβ1γ2, sequence (P63212 2-68 limits assumed): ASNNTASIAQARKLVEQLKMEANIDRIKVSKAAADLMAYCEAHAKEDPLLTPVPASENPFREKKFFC

| SMILES | effect on Gβ1γ2-dependent activation of PI3Kγ (PI3Kγ) | effect on β-AR-mediated recruitment of GRK2 to membranes [1] | effect on cAMP generation at baseline and with isoproterenol [2] | effect on interstitial cardiac fibrosis ([3]; Iso 30 mg/kg/day pump, M119 100 mg/kg IP daily, seven days) | effect on cardiac function and morphology in Iso pumped animals ([3]; Iso 30 mg/kg/day pump, M119 100 mg/kg IP once daily, seven days) | effect on GRK2 expression in the Iso HF model ([3]; M119 100 mg/kg IP daily) | effect of compound alone on cardiac function or morphology ([3]; vehicle pump, M119 100 mg/kg IP daily) | effect on carbachol-dependent increases in Ca^2+ [4] | IC50 (PI3Kγ; Table 19, effector IC50, read-out: PI 3-Kg) [nM] | Kd (Gβ1γ2) [nM] | kon (Gβ1γ2; SPR) [M⁻¹ s⁻¹] | koff (Gβ1γ2; SPR) [s⁻¹] | Kd (Gβ1γ2; SPR, read-out: Kd) [nM] |
| --- | --- | --- | --- | --- | --- | --- | --- | --- | --- | --- | --- | --- | --- |
| O=C(O)C1CCCCC1c1c2ccc(=O)cc-2oc2cc(O)ccc12 (stereo not shown) [Compound M119B] | did not have effects | – | – | – | – | – | – | – | – | – | – | – | – |
| O=C(O)C1CCCCC1c1c2ccc(=O)c(O)c-2oc2c(O)c(O)ccc12 (stereo not shown) [Compound M119, cyclohexanecarboxylic acid, 2-(4,5,6-trihydroxy-3-oxo-3H-xanthen-9-yl)-(9cl)] | attenuated | reduced | enhanced | reduction in interstitial cardiac fibrosis | near normalization of cardiac function and morphology | nearly normalized | no effect | no effect | 8000 | 100 | 2000 | 0.0002 | – |
| O=C(O)c1ccccc1-c1c2ccc(=O)c(O)c-2oc2c(O)c(O)ccc12 (racemic) [Gallein] | – | – | – | – | – | – | – | – | – | – | 1130 ± 17 | 0.00043 | ~400 |
